pKi: −log10 of the molar value. Structures can show the parent of a compound that is named as a salt.
Experiments:
Parameters in all cases: species or system rat (male Charles River CD)
[1] = target: T1, D2-like dopamine receptors (Rattus norvegicus, UniProt P61169); assay: inhibition of tritiated (S)-sulpiride binding to D2-like dopamine receptors in rat striatal tissue; conditions: rat striatum
T1 construct: Striatal tissue from the brains of male Charles River CD rats; from tissue; host or cells: rat striatum (male Charles River CD rats), membrane preparation
T1 sequence (P61169 whole entry): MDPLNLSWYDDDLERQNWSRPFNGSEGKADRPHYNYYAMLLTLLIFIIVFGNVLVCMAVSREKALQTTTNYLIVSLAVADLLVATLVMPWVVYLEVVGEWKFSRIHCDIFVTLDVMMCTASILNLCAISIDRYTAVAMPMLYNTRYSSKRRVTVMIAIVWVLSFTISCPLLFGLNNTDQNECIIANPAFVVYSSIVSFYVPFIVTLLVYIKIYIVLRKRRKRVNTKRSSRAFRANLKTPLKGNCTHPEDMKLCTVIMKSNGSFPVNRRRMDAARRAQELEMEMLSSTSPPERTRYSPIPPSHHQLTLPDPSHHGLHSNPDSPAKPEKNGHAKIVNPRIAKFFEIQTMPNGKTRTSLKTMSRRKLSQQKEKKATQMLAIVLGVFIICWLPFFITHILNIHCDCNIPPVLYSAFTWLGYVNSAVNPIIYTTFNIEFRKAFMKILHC
Procedure: Striatal tissue from the brains of male Charles River CD rats weighing between 140-250 g were homogenised in ice-cold 50 mM Tris-HCl buffer (pH 7.7 when measured at 25° C.) and centrifuged at 40,000 g for 10 minutes. The pellet was resuspended in Tris salts buffer (50 mM Tris-HCl buffer containing 120 mM NaCl, 5 mM KCl, 2 mM CaCl2 and 1 mM MgCl2 with the addition of 6 mM ascorbic acid; pH 7.7 when measured at 25° C.), and again centrifuged at 40,000 g for 10 minutes. The final pellet was stored at -80° C. Before each test the pellet was resuspended in Tris salts buffer (equivalent to 2 mg wet weight of tissue/ml). […]
(§1) The filters were washed with ice-cold Tris-HCl buffer and dried. The filters were punched out in to vials, scintillation fluid added and were left for about 20 hours before being counted by scintillation spectrophotometry. The percentage displacement of specific binding of the tritiated ligand was calculated for the single concentration (10^-6 M) of test compound. […] The inhibition coefficient Ki was then calculated using the formula [formula] in which [ligand] is the concentration of the tritiated ligand used and KD is the equilibrium dissociation constant for the ligand.

5-HT1A receptors = target: T2, 5-HT1A receptors (Rattus norvegicus, UniProt P19327); assay: inhibition of [3H]8-OH-DPAT binding to 5-HT1A receptors in rat hippocampal tissue; conditions: rat hippocampus
T2 construct: Hippocampal tissue from the brains of male Charles River CD rats; from tissue; host or cells: rat hippocampus (male Charles River CD rats), membrane preparation
T2 sequence (P19327 1-422): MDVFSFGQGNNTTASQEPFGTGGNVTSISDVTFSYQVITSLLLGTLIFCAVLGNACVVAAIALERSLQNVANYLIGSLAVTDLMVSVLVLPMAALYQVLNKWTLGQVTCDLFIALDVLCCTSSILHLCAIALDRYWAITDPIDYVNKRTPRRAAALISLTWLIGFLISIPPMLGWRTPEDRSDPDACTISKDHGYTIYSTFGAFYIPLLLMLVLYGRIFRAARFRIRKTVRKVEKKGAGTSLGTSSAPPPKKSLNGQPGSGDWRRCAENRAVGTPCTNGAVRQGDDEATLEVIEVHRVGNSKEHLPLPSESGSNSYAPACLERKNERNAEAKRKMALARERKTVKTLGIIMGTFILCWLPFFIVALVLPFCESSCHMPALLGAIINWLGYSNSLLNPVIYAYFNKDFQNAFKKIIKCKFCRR
Procedure: Hippocampal tissue from the brains of male Charles River CD rats weighing between 150-250 g were homogenised in ice-cold 50 mM Tris-HCI buffer (pH 7.7) when measured at 25° C., 1:40 w/v) and centrifuged at 30,000 g at 4° C. for 10 minutes. The pellet was rehomogenised in the same buffer, incubated at 37° C. for 10 minutes and centrifuged at 30,000 g at 4° C. for 10 minutes. The final pellet was resuspended in 50 mM Tris-HCl buffer (pH 7.7) containing 4 mM CaCl2, 0.1% L-ascorbic acid and 10 μM pargyline hydrochloride (equivalent to 6.25 mg wet weight of tissue/ml) and used immediately in the binding assay. […]
as §1, with “into” for “in to”, “radioactivity determined” for “were left for about 20 hours before being counted”, “by liquid” for “by”, “counting.” for “spectrophotometry.”

α1-adrenoceptors = assay: inhibition of [7-methoxy-3H]prazosin binding to α1-adrenoceptors in rat whole cortical tissue; conditions: rat cortex
Procedure: Whole cortical tissue from the brains of male Charles River CD rats weighing between 150-250 g were homogenised in ice-cold 50 mM Tris-HCl, pH 7.6 (at 25° C.; 1:40 w/v) and centrifuged at 1000 g at 4° C. for 10 minutes. The supernatant was centrifuged at 30,000 g at 4° C. for 10 minutes. The pellet was rehomogenised in 50 mM Tris-HCl, pH 7.6 (1:40 w/v) and centrifuged at 30,000 g at 4° C. for 10 minutes. The final pellet was resuspended in 50 mM Tris-HCl, pH 7.6 (equivalent to 12.5 mg wet weight of tissue/ml) and used immediately in the binding assay. […]
as §1, with “into” for “in to”, “radioactivity determined” for “were left for about 20 hours before being counted”, “by liquid” for “by”, “counting.” for “spectrophotometry.”

Row | pKi ([1]; tritiated (S)-sulpiride 1 nM, 4° C., 40 minutes) | pKi (5-HT1A receptors; [3H]8-OH-DPAT 2 nM, 25° C., 30 minutes) | pKi (α1-adrenoceptors; [7-methoxy-3H]prazosin 0.1 nM, 30° C., 30 minutes) | inhibition at 1 µM ([1]; 10^-6 M, tritiated (S)-sulpiride, read-out: % displacement at 10^-6 M (D2-like)) | inhibition at 1 µM (5-HT1A receptors; 10^-6 M, [3H]8-OH-DPAT, read-out: % displacement at 10^-6 M (5-HT1A)) | % displacement at 10^-6 M (α1) (α1-adrenoceptors; 10^-6 M, [7-methoxy-3H]prazosin, 30 min, 1 µM) | Structure (SMILES)
1 | 8.12 | 8.51 | 7.91 | – | – | – | Nc1ncccc1C(=O)NCC1CCN(C[C@H]2COc3ccc4[nH]ccc4c3O2)CC1 [Example 1, (S)-2-amino-N-{[1-(2,3-dihydro-7H-1,4-dioxino[2,3-e]indol-2-ylmethyl)-4-piperidyl]methyl}pyridine-3-carboxamide]
2 | – | – | – | 122% | 99% | 93% | O=C(NCC1CCN(C[C@H]2COc3ccc4[nH]ccc4c3O2)CC1)c1ccccn1 [Example 2, (S)-N-{[1-(2,3-dihydro-7H-1,4-dioxino[2,3-e]indol-2-ylmethyl)-4-piperidyl]methyl}pyridine-2-carboxamide 1.3 fumarate, 0.25 diethyl ether, 1.0 hydrate]
